Measured values: patent US10463661B2, “Anthelmintic compounds” (MERIAL INC., priority 2014, dated 2019)

What was measured:
[1] = Permeability in the CACO-2/TC7 in vitro model (Method C); type: in vitro ADME; conditions: human, apical to basolateral, pH gradient 6.5/7.4 and BSA gradient 0.5%/5%, 20 μM compound
Source text: Permeability of Compounds.
Permeability of a compound across the epithelium cells along the gastrointestinal tract is an important limiting factor for the oral absorption and systemic availability of the compound. An in vitro model utilizing Caco-2/TC7 cells is employed to assess the permeability characteristics of new chemical entities (NCEs). For orally administered compounds, absorption depends on the intrinsic permeability across the intestinal epithelium and whether the active agent is a substrate or inhibitor of uptake or efflux transporters.
The permeability studies were performed under standard conditions in the apical to basolateral (A→B) direction with a pH gradient and a BSA gradient (standard apical medium (0.5% BSA at pH 6.5)/standard basal medium (5% BSA at pH 7.4)); conditions that most closely reflect the conditions in the in vivo situation. Samples were deproteinized by the addition of 400 μl acetonitrile to 200 μl sample, followed by a 20-minute centrifugation at 1730 g. […] Analytical conditions: Supernatants recovered following centrifugation were analysed by LC/MS/MS using a reverse phase column and the mobile phases delivered at 0.3 ml/minute in a gradient: water (A) and acetonitrile (B) (each with 0.1% formic acid). […]

[2] = tested on: Haemonchus contortus; assay: Screening method to test activity against Haemonchus contortus L1 larvae (Method A); type: cell-based; conditions: 96 h, read-out: motility inhibition
Protocol: Screening method to test activity of compounds against Haemonchus contortus.
Twenty L1 Haemonchus contortus larvae were added to wells of a microtitre plate containing a nutrient medium and the test compound in DMSO. An analysis was conducted at 4 days to determine the extent of development of the larvae. Larvae exposed to DMSO alone served as controls. Compounds 3, 6, 12, 15, 43, 44, 45, 46, 47, 48, 49, & 50 gave at least 90% motility inhibition at a test concentration of less than or equal to <1 μM when assessed at the 4 day time point.

[3] = tested on: ivermectin-resistant strains of Trichostrongylus columbriformis; assay: Efficacy against ivermectin-resistant endoparasites in sheep (FIG. 2); type: in vivo; conditions: 0.2 mg/kg orally
[4] = tested on: ivermectin-resistant strains of Ostertagia circumcincta; assay: as above; type: in vivo; conditions: 0.2 mg/kg orally
[5] = tested on: ivermectin-resistant strains of Haemonchus contortus; assay: as above; type: in vivo; conditions: 0.2 mg/kg orally

| Compound | Papp A→B at 20 μM [1] [×10⁻⁶ cm/s] | inhibition at 1 µM [2] [%] | efficacy [3] | efficacy [4] | efficacy [5] |
| --- | --- | --- | --- | --- | --- |
| N#Cc1ccc(N2CCC(OCC(=O)N3CCN(c4nc5cc(C(F)(F)F)ccc5s4)CC3)CC2)cc1C(F)(F)F [Compound 3, 4-[4-[2-oxo-2-[4-[5-(trifluoromethyl)-1,3-benzothiazol-2-yl]piperazin-1-yl]ethoxy]-1-piperidyl]-2-(trifluoromethyl)benzonitrile] | 2.8 | ≥ 90 | – | – | – |
| ivermectin | – | – | less than 60% | less than 30% | almost completely inactive |
| N#Cc1ccc(N2CC(OCC(=O)N3CCN(c4nc5cc(C(F)(F)F)ccc5s4)CC3)C2)cc1C(F)(F)F [Compound 6, 4-[3-[2-oxo-2-[4-[5-(trifluoromethyl)-1,3-benzothiazol-2-yl]piperazin-1-yl]ethoxy]azetidin-1-yl]-2-(trifluoromethyl)benzonitrile] | – | ≥ 90 | – | – | – |
